Measured values: patent US6706663B2, “Herbicidal 3-heterocyclic substituted benzisothiazole and benzisoxazole compounds” (Wyeth, priority 2000, dated 2004)

Key:
GALAP (Galium aparine) [1] = test: Postemergence herbicidal evaluation; type: in vivo; conditions: postemergence
How it was run: (§1)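 Visual 0–9 injury scores versus control plants, covering stand, vigour, malformation, size, chlorosis and general appearance, taken four to five weeks post-spray and averaged over replicate tests. Plants were sprayed at roughly two weeks old and held on greenhouse benches.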

GALAP (Galium aparine) [2] = test: Preemergence herbicidal evaluation; type: in vivo; conditions: rated 4-5 weeks after treatment
How it was run: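 Visual 0-9 rating versus untreated control, taken four to five weeks post-treatment, scoring stand, vigor, malformation, size, chlorosis and overall appearance. Compound applied as aqueous acetone spray to freshly seeded soil cups, then kept under standard greenhouse care.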

ORYSAT (Rice, Tebonnet) = test: Preemergence herbicidal evaluation; type: in vivo, Oryza sativa, (L.) Tebonnet; conditions: rated 4-5 weeks after treatment
[3] = system: ECHCG (Echinochloa crus-galli); test: Postemergence herbicidal evaluation; type: in vivo, (L.) Beau; conditions: postemergence
How it was run: as §1

[4] = system: ECHORC (Echinochloa oryzoides); test: Flooded paddy, preemergence weed control; type: in vivo, Echinochloa oryzoides (Ard.) Fritsch.; conditions: rated 3-4 weeks after treatment, 0-9 rating scale
How it was run: (§2)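 Plants were established from seed or propagating organs in flooded silt loam, with the water surface held 1.5 to 3 cm above the soil for the entire experiment. Injury was assessed visually against a control and given a 0-9 score.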

[5] = system: SAGPY (Sagittaria pygmaea); test: Flooded paddy, preemergence weed control; type: in vivo, L.; conditions: rated 3-4 weeks after treatment, 0-9 rating scale
How it was run: as §2

[6] = system: TRZAWR (Wheat, Winter, cv Riband); test: Postemergence herbicidal evaluation; type: in vivo, Triticum aestivum; conditions: postemergence
How it was run: as §1

SETVI (Setaria viridis) = test: Postemergence herbicidal evaluation; type: in vivo, (L.) Beau; conditions: postemergence
How it was run: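 Postemergence foliar spray on two-week-old seedlings, dose equivalent to about 0.0040 to 1.000 kg/ha. Ratings use a 0-9 visual scale relative to control at four to five weeks.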

ZEAMX (Corn, Field) = test: Postemergence herbicidal evaluation; type: in vivo, Zea mays, L.; conditions: postemergence
How it was run: as §1

[7] = preemergence, rate 0.0620 kg/ha
[8] = preemergence, rate 0.1250 kg/ha
[9] = preemergence, rate 0.2500 kg/ha

| Structure (SMILES) | GALAP herbicidal rating (GALAP (Galium aparine) [1]; rate 0.0320 kg/ha) | GALAP herbicidal rating (GALAP (Galium aparine) [1]; rate 0.0620 kg/ha) | Preemergence herbicidal rating GALAP (GALAP (Galium aparine) [2]; Rate 0.0620 kg/ha) | Preemergence herbicidal rating GALAP (GALAP (Galium aparine) [2]; Rate 0.1250 kg/ha) | Preemergence herbicidal rating GALAP (GALAP (Galium aparine) [2]; Rate 0.2500 kg/ha) | Preemergence herbicidal rating ORYSAT (ORYSAT (Rice, Tebonnet); Rate 0.0620 kg/ha) | Preemergence herbicidal rating ORYSAT (ORYSAT (Rice, Tebonnet); Rate 0.1250 kg/ha) | Preemergence herbicidal rating ORYSAT (ORYSAT (Rice, Tebonnet); Rate 0.2500 kg/ha) | ECHCG herbicidal rating ([3]; rate 0.0320 kg/ha) | ECHCG herbicidal rating ([3]; rate 0.0620 kg/ha) | herbicidal rating, ECHORC ([4]; rate 0.0080 kg/ha) | herbicidal rating, ECHORC ([4]; rate 0.0320 kg/ha) | herbicidal rating, ECHORC ([4]; rate 0.1250 kg/ha) | herbicidal rating, SAGPY ([5]; rate 0.0080 kg/ha) | TRZAWR herbicidal rating ([6]; rate 0.0320 kg/ha) | TRZAWR herbicidal rating ([6]; rate 0.0620 kg/ha) | SETVI herbicidal rating (SETVI (Setaria viridis); rate 0.0320 kg/ha) | SETVI herbicidal rating (SETVI (Setaria viridis); rate 0.0620 kg/ha) | ZEAMX herbicidal rating (ZEAMX (Corn, Field); rate 0.0320 kg/ha) | ZEAMX herbicidal rating (ZEAMX (Corn, Field); rate 0.0620 kg/ha) | other results |
| --- | --- | --- | --- | --- | --- | --- | --- | --- | --- | --- | --- | --- | --- | --- | --- | --- | --- | --- | --- | --- | --- |
| C=CC1COC(c2nsc3ccc(-n4c(=O)cc(C(F)(F)F)n(C)c4=O)cc23)O1 (stereo not drawn) [Compound 76, 1-methyl-6-(trifluoromethyl)-3-[3-(4-vinyl-1,3-dioxolan-2-yl)-1,2-benzisothiazol-5-yl]uracil] | 5.0 | 7.0 | 7.0 | 9.0 | 9.0 | 7.0 | 8.5 | 9.0 | 0.0 | 3.0 | 5.0 | 7.0 | 9.0 | 0.0 | 3.0 | 3.5 | 7.0 | 9.0 | 3.5 | 4.5 | herbicidal rating, SAGPY ([5]; rate 0.0320 kg/ha): 0.0; herbicidal rating, SAGPY ([5]; rate 0.1250 kg/ha): 9.0 |
| Cn1c(C(F)(F)F)cc(=O)n(-c2ccc3snc(C4=NCCO4)c3c2)c1=O [Compound 75, 1-methyl-3-[3(2-oxazolin-2-yl)-1,2-benzisothiazol-5-yl]-6-(trifluoromethyl)uracil] | 5.0 | 7.0 | 5.0 | 7.0 | 9.0 | 0.0 | 2.0 | 7.0 | 3.0 | 3.0 | 1.5 | 4.0 | 8.5 | 0.0 | 2.0 | 3.5 | 2.0 | 4.0 | 4.5 | 5.0 | herbicidal rating, SAGPY ([5]; rate 0.0320 kg/ha): 4.5; herbicidal rating, SAGPY ([5]; rate 0.1250 kg/ha): 9.0 |
| Cn1c(C(F)(F)F)cc(=O)n(-c2cc3c(C4OCCCO4)nsc3cc2F)c1=O [Compound 62, 3-(3-m-dioxan-2-yl-6-fluoro-1,2-benzisothiazol-5-yl)-1-methyl-6-(trifluoromethyl)uracil] | 9.0 | 9.0 | 9.0 | 9.0 | 9.0 | 9.0 | 9.0 | 9.0 | 6.0 | 9.0 | 8.5 | 9.0 | 9.0 | 9.0 | 6.5 | 6.5 | 9.0 | 9.0 | 6.0 | 7.0 | herbicidal rating, SAGPY ([5]; rate 0.0320 kg/ha): 6.0; herbicidal rating, SAGPY ([5]; rate 0.1250 kg/ha): 9.0 |
| Cn1c(C(F)(F)F)cc(=O)n(-c2ccc3snc(C4OC(=O)C(C)(C)O4)c3c2)c1=O (stereo not drawn) [Compound 71, 3-[3-(4,4-dimethyl-5-oxo-1,3-dioxolan-2-yl)-1,2-benzisothiazol-5-yl]-1-methyl-6-(trifluoromethyl)uracil] | 2.0 | 7.0 | 6.0 | 9.0 | 9.0 | 5.5 | 8.0 | 8.5 | 1.0 | 3.0 | 0.0 | 0.0 | 0.0 | 0.0 | 3.0 | 3.5 | 2.0 | 7.0 | 4.5 | 5.0 | herbicidal rating, SAGPY ([5]; rate 0.0320 kg/ha): 0.0; herbicidal rating, SAGPY ([5]; rate 0.1250 kg/ha): 0.0 |
| Cn1c(C(F)(F)F)cc(=O)n(-c2ccc3snc(C4OCC(CS(C)(=O)=O)O4)c3c2)c1=O (single isomer, unassigned) [Compound 87, 1-methyl-3-[3-[4-[(methylsulfonyl)methyl]-1,3-dioxolan-2-yl]-1,2-benzisothiazol-5-yl]-6-(trifluoromethyl)uracil] | 9.0 | 9.0 |  |  |  |  |  |  | 3.0 | 4.0 |  |  |  |  | 3.0 | 4.0 | 6.0 | 9.0 | 3.5 | 3.5 | Preemergence herbicidal rating GALAP (GALAP (Galium aparine) [2]; [7]): 6.0; Preemergence herbicidal rating GALAP (GALAP (Galium aparine) [2]; [8]): 9.0; Preemergence herbicidal rating GALAP (GALAP (Galium aparine) [2]; [9]): 9.0; Preemergence herbicidal rating ORYSAT (ORYSAT (Rice, Tebonnet); [7]): 2.0; Preemergence herbicidal rating ORYSAT (ORYSAT (Rice, Tebonnet); [8]): 3.0; Preemergence herbicidal rating ORYSAT (ORYSAT (Rice, Tebonnet); [9]): 5.0; ECHORC herbicidal rating ([4]; rate 0.0320 kg/ha): 0.0; ECHORC herbicidal rating ([4]; rate 0.1250 kg/ha): 0.0; SAGPY herbicidal rating ([5]; rate 0.0320 kg/ha): 0.0; SAGPY herbicidal rating ([5]; rate 0.1250 kg/ha): 0.0 |
| Cn1c(C(F)(F)F)cc(=O)n(-c2ccc3snc(C4OCC(CO)O4)c3c2)c1=O (stereo not drawn) [Compound 73, 3-[3-[4-(hydroxymethyl)-1,3-dioxolan-2-yl]-1,2-benzisothiazol-5-yl]-1-methyl-6-(trifluoromethyl)uracil] | 9.0 | 9.0 | 8.0 | 8.0 | 9.0 | 6.0 | 7.0 | 8.0 | 2.0 | 3.0 | 0.0 | 0.0 | 7.0 | 0.0 | 3.5 | 4.0 | 4.0 | 8.0 | 4.5 | 5.0 | herbicidal rating, SAGPY ([5]; rate 0.0320 kg/ha): 0.0; herbicidal rating, SAGPY ([5]; rate 0.1250 kg/ha): 3.0 |
| Cn1c(C(F)(F)F)cc(=O)n(-c2ccc3snc(-c4sccc4CBr)c3c2)c1=O [Compound 80, 3-[3-[3-(bromomethyl)-2-thienyl]-1,2-benzisothiazol-5-yl]-1-methyl-6-(trifluoromethyl)uracil] | 3.0 | 4.0 | 4.0 | 5.0 | 7.0 | 0.5 | 2.5 | 6.0 | 0.0 | 0.0 | 1.0 | 4.0 | 8.0 | 0.0 | 3.0 | 3.5 | 2.0 | 3.0 | 3.5 | 5.5 | herbicidal rating, SAGPY ([5]; rate 0.0320 kg/ha): 4.5; herbicidal rating, SAGPY ([5]; rate 0.1250 kg/ha): 7.0 |
| Cn1c(C(F)(F)F)cc(=O)n(-c2ccc3snc(-c4ccco4)c3c2)c1=O [Compound 60, 3-[3-(2-furyl)-1,2-benzisothiazol-5-yl]-1-methyl-6-(trifluoromethyl)uracil] | 7.0 | 9.0 | 6.0 | 7.0 | 9.0 | 1.0 | 4.0 | 6.0 | 2.0 | 2.0 | 1.5 | 4.0 | 7.0 | 0.0 | 4.0 | 4.5 | 3.0 | 2.0 | 5.5 | 6.0 | herbicidal rating, SAGPY ([5]; rate 0.0320 kg/ha): 0.0; herbicidal rating, SAGPY ([5]; rate 0.1250 kg/ha): 2.5 |
